Earlier results in publication PMC5318888, “SAMHD1 enhances nucleoside-analogue efficacy against HIV-1 in myeloid cells” (Scientific Reports, 2017).

Target: T1, SAMHD1 (Homo sapiens, UniProt Q9Y3Z3)
T1 construct: The final concentrations were 100 nM SAMHD1(115–626), 10 nM Ppx1; strep-tag; made in house
Design: method as in PMID 25331707
Settings: previous in vitro assays; cited from earlier work

T1 sequence (Q9Y3Z3 115-626): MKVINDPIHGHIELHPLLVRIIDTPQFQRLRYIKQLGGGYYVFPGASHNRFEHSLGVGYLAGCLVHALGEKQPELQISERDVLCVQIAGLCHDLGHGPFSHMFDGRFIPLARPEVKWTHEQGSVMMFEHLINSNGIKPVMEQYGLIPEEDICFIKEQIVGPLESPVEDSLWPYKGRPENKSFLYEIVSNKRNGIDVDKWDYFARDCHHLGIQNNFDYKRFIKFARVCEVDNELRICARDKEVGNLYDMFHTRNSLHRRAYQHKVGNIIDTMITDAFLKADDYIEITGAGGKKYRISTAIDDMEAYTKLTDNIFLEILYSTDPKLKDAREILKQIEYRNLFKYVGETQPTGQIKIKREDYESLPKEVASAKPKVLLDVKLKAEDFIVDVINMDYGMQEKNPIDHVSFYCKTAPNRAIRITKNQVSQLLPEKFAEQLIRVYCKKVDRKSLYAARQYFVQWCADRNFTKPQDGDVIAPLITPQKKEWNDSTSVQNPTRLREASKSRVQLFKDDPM

Nc1nc(O)c2ncn(COC(CO)COP(=O)(O)OP(=O)(O)OP(=O)(O)O)c2n1 (centres unmarked) [GCV-TP, Ganciclovir triphosphate]
allosteric activation of SAMHD1: displayed no activation of SAMHD1
hydrolysis by SAMHD1 (substrate): non-hydrolysable

Nc1nc2c(ncn2COCCOP(=O)(O)OP(=O)(O)OP(=O)(O)O)c(=O)[nH]1 [ACV-TP, Aciclovir triphosphate]
allosteric activation of SAMHD1: allosteric activator of SAMHD1 with comparable efficiency to GTP
hydrolysis by SAMHD1 (substrate): non-hydrolysable

Nc1nc(Cl)nc2c1ncn2[C@@H]1O[C@H](COP(=O)(O)OP(=O)(O)OP(=O)(O)O)[C@@H](O)[C@@H]1F [CFB-TP, Clofarabine triphosphate]
hydrolysis by SAMHD1 (substrate): substrate hydrolysed by SAMHD1 at a rate comparable to natural dNTP substrates
